# Reference: patent publication USRE38962E1, “Diphenyl-triazole derivatives and their use as anti-gestative immuno-suppressant and anti-tumoral agents” (Geange Ltd., priority 1997, dated 2006)
# Marks after values point to notes of the source that are not given here.
# What was measured:
# S.D. Rats = assay: Pregnancy termination activity in S.D. rats after a single subcutaneous injection at day 7 of gestation; format: in vivo, Sprague Dawley rats; settings: single subcutaneous injection on day 7 of gestation; for ED50: Rattus norvegicus, sc, autopsy day 16, read-out: ED50 (dose terminating pregnancy, absence of live foetuses, in 50% of treated animals); for ED50 (dose terminating pregnancy in 50% of treated animals): autopsy day 16
# Method: In particular, female Sprague Dawley rats weighing 200-230 g. were mated and the presence of sperm was detected, was considered day one of pregnancy.
# Pregnancy was later confirmed at the time of autopsy by the presence of implantation sites in the uterus.
# Test compounds dissolved in sesame oil containing 20% benzyl benzoate (or suspended if insoluble), were administered subcutaneously, in a single injection, on day 7 of gestation. The animals were then autopsied on day 16 of pregnancy and the uteri were examined for evidence of pregnancy (implantation sites, foetal resorption or live foetuses), haemorrhage, and evidence of abnormalities of the uterus, placenta or foetuses, for reference see G. Galliani et al. Contraception, 23, 163-180 (198).
# These values identify the dose levels which terminate pregnancy (absence of live foetuses) in 50% of the treated animals.
# [1] = test system: Sheep Red Blood Cells (SRBC); assay: IgG antibody response to SRBC (indirect plaque forming cells in spleen); format: in vivo, B6D2F1 mice; settings: dosing day 0, 2.15 μmoles/Kg/day; vehicle 24 + 3
# Method: (§1) In detail, the Antibody Response to Sheep Red Blood Cells (SRBC) and to Lipo-polysaccharide (LPS), was studied in B6D2F1 mice injected intravenously 10^8 SRBC (day 0). Direct (IgM) and indirect (IgG) plaque forming cells (PFC) were evaluated in the spleen 4 and 10 days later, Jerne et al. Science 140, 405 (1963) and Dresser and Wortis, Nature, 208, 859(1965).
# (§2) Indirect PCF were developed with rabbit anti-serum to mouse gamma globulin. B6D2F1 mice were immunised with 20 μg LPS intra-peritoneally. Four days later, PCF were determined in the spleen by SRBC coated with LPS, Moller, Nature, 207, 1166(1965).
# [2] = test system: Lipo-polysaccharide (LPS); assay: IgM antibody response to LPS (plaque forming cells in spleen); format: in vivo, B6D2F1 mice; settings: antigen LPS, dosing day 0, 8.60 μmoles/Kg/day; vehicle 10 + 2; p < 0.01
# Method: as §1, §2
# SRBC = assay: Delayed type hypersensitivity (DTH), footpad swelling; format: in vivo, C57B1/6 mice; settings: dosing day 0, 3.60 μmoles/Kg/day; vehicle 11.4 + 3.7
# Method: Delayed Type hypersensitivity (DTH), was carried out in C57B1/6 mice administered subcutaneously 2×10^8 SRBC emulsified in complete Freund's adjuvant. Ten days later an eliciting dose of 10^8 SRBC was inoculated into a footpad. The DTH reaction was recorded 24 hours later by measuring the footpad swelling (Kerckhaert et al, i Cell Immunology, 29, 232, (1977).
# Beagle bitches = assay: Contragestational effect in Beagle bitches after a single intramuscular dose; format: in vivo; settings: for Pregnancy arrest (%): single i.m. 5 mg/kg (11.1 μmoles/kg)
# Method: The compound was given intramuscularly in one depot site of the thigh muscle of the right hind leg dissolved in sesame oil at the dose of 5 mg/kg (11.1 μmoles/kg , […], 0.2 mL/kg). The anti-gestative effectiveness was ascertained by exploratory laparatomy examining uterine horns where the presence of live or dead foetuses was deduced from the dimension and appearance of each uterine swelling, for methodological reference see G. Galliani et al., J. Small Animal Practice, 25, 211-222 (1984).
# [3] = test system: grafts of skin from C3H (H-2^k) donor mice; assay: Skin graft survival time (C3H donor onto C57B1/6 recipient); format: in vivo, C57B1/6 mice; settings: dosing days −1, 7, 17.20 μmols/Kg/day; vehicle 10.7 + 0.4
# Method: For the Skin Grafting, fitted pinch, grafts of skin from C3H (H-2^k) donor mice were transplanted onto C57B1/6 (H-2^b) recipient mice (Mistrello et al,. 1984) Bandages were removed 7 days later and graft were scored daily by microscopy. Rejection was recorded when no viable epidermis remained. The median survival time (MST) of the grafts, measured as days, was calculated according to Litchfield (1949).
# Acute toxicity studies = settings: in vivo
# Method: Acute toxicity studies did show as the lethal doses of compounds (VI), LD50>500 mg/kg, are of three order of magnitude higher than those anti-gestative.
# human chorio-carcinoma = assay: Growth of human chorio-carcinoma transplanted into nude mice; format: in vivo
# [4] = test system: Sheep Red Blood Cells (SRBC); assay: IgM antibody response to SRBC (direct plaque forming cells in spleen); format: in vivo, B6D2F1 mice; settings: antigen SRBC, dosing day 0, 8.60 μmoles/Kg/day; vehicle 124 + 18; p < 0.01
# Method: as §1
smiles,measurement,setting,value
CCOC(=O)OCc1ccccc1-c1n[nH]c(-c2cccc(OCC)c2)n1 [(XV)],ED50,S.D. Rats,15 mg/kg
same,ED50 (dose terminating pregnancy in 50% of treated animals),S.D. Rats,27.2 µmol/kg
CCCCCCCCOC(=O)OCc1ccccc1-c1n[nH]c(-c2cccc(OCC)c2)n1 [(VI)],"PFC/SPLEEN.10^−3 (mean + S.D.), IgG response to SRBC",[1],3 + 3* PFC/SPLEEN.10^−3
same,"PCF/spleen.10^−3 (mean = S.D.), IgM response",[2],3 + 1* PCF/spleen.10^−3
same,ED50,S.D. Rats,2 mg/kg
same,ED50 (dose terminating pregnancy in 50% of treated animals),S.D. Rats,4.4 µmol/kg
same,"FOOTPAD SWELLING UNITS (Mean + S.D.), DTH",SRBC,5.2 + 1.2** UNITS
same,Pregnancy arrest (%),Beagle bitches; administered day 15 of gestation,80%
same,Pregnancy arrest (%),Beagle bitches; administered day 20 of gestation,100%
same,Pregnancy arrest (%),Beagle bitches; administered day 25 of gestation,100%
same,Tolerability,Beagle bitches; single intramuscular dose,very well tolerated
same,Anti-gestative effectiveness,Beagle bitches; single intramuscular dose between day of mating and 25th day of gestation,highly effective
same,"MST, days (mean ± S. D.), skin graft median survival time",[3],15.1 + 0.6* days
same,LD50,Acute toxicity studies,> 500 mg/kg
same,Potency compared with methotrexate,human chorio-carcinoma; human chorio-carcinoma transplanted into nude mice,even higher than that displayed by methotrexate
same,Inhibition of the growth of human chorio-carcinoma,human chorio-carcinoma; transplanted into nude mice,highly effective
same,"PCF/spleen.10^−3 (mean = S.D.), IgM response",[4],12 + 3* PCF/spleen.10^−3
CCCCCCOC(=O)OCc1ccccc1-c1n[nH]c(-c2cccc(OCC)c2)n1 [(XVI)],ED50,S.D. Rats,5 mg/kg
same,ED50 (dose terminating pregnancy in 50% of treated animals),S.D. Rats,11.8 µmol/kg
CCCCOC(=O)OCc1ccccc1-c1n[nH]c(-c2cccc(OCC)c2)n1 [(XIV)],ED50,S.D. Rats,8 mg/kg
same,ED50 (dose terminating pregnancy in 50% of treated animals),S.D. Rats,20.3 µmol/kg
"CCOc1cccc(-c2n[nH]c(-c3ccccc3CO)n2)c1 [D, 5-(2-Hydroxymethylphenyl)-3-(3-ethoxy-phenyl)-1H-1,2,4-triazole, reference compound]",ED50,S.D. Rats,16 mg/kg
same,ED50 (dose terminating pregnancy in 50% of treated animals),S.D. Rats,54.6 µmol/kg
